The target of series [1] is T1, DNA topoisomerase 1 (Homo sapiens) (UniProt P11387).
T1 sequence (whole entry): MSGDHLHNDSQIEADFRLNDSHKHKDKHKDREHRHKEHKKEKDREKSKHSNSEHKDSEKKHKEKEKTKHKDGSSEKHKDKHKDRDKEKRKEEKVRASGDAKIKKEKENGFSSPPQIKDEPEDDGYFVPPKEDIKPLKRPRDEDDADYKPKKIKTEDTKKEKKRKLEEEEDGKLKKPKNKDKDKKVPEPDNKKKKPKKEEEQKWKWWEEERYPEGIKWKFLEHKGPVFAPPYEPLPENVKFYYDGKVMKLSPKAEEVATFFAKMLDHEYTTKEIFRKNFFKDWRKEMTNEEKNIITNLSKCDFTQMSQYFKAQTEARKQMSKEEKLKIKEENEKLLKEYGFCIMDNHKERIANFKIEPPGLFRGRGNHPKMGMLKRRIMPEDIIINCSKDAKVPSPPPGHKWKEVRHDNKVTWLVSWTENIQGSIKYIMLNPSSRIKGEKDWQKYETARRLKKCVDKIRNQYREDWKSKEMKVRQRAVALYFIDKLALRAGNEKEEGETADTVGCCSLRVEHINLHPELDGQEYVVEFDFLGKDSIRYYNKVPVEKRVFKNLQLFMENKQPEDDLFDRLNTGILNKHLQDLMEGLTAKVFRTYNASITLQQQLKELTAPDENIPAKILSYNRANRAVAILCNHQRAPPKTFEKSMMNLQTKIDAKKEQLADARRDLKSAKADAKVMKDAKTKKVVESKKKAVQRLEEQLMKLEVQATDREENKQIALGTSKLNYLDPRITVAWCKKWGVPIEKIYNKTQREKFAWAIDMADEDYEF
The series can be described thus: Inhibition of Top1 (unknown origin)-mediated pBR322 DNA cleavage using ethidium bromide staining at 200 uM after 15 mins by electrophoresis analysis.

Series [2] relates to HCT-116. The series can be described thus: Cytotoxicity against human HCT116 cells after 72 hrs by MTT assay. In kind it is functional, cell-based. The following applies: HCT-116, 72 h.
For another series, the target named is Tubulin (Homo sapiens) (UniProt P68371+Q9H4B7+P0DPH7+P68366+Q13509+Q71U36+P04350+Q3ZCM7+P07437+P68363+Q9BQE3+Q6PEY2+Q13885+Q9BVA1+Q9BUF5). The series can be described thus: Inhibition of brain tubulin (unknown origin) polymerization at 5 uM measured up to 15 to 30 mins.
In series [3] the test system is HCT-116. The series is described as follows: Antitumor activity against human HCT116 cells xenografted in BALB/C mouse assessed as tumor growth inhibition at 2 mg/kg, ip for 5 days. The format is functional, organism-based.
Series [4] has as its system Mus musculus. The series is described as follows: Toxicity in human A549 cells xenografted BALB/C mouse assessed as change in body weight at 2 mg/kg, ip for 5 days. In kind it is organism-based. Particulars: in vivo, 120 h.
The next series has as its system K562. The series can be described thus: Cytotoxicity against human K562 cells after 72 hrs by MTT assay. In kind it is functional, cell-based. Particulars: K562, 72 h.
Series [5] is described as follows: Cytotoxicity against human SW579 cells after 72 hrs by MTT assay. In kind it is functional, cell-based. The following applies: SW579, 72 h.
The test system of series [6] is A549. The series can be described thus: Induction of apoptosis in human A549 cells assessed as apoptotic cells at 5 uM after 48 hrs by flow cytometry analysis. The format is functional.
Series [7] relates to A549. The series is described as follows: Antitumor activity against human A549 cells xenografted in BALB/C mouse assessed as tumor growth inhibition at 2 mg/kg, ip for 5 days. In kind it is functional, organism-based.
For series [8], the system named is A549. The series can be described thus: Cell cycle arrest in human A549 cells assessed as accumulation at G2/M phase using propidium iodide staining at 5 uM after 36 hrs by flow cytometry analysis. In kind it is functional.
The test system of series [9] is A549. The series can be described thus: Cell cycle arrest in human A549 cells assessed as accumulation at G2/M phase using propidium iodide staining at 5 uM after 12 hrs by flow cytometry analysis. The format is functional, cell-based.
For series [10], the target named is DNA topoisomerase 2-alpha (Homo sapiens) (UniProt P11388). The series can be described thus: Inhibition of Top2alpha (unknown origin)-mediated pBR322 DNA cleavage using ethidium bromide staining at 100 uM after 30 mins by electrophoresis analysis.
DNA topoisomerase 2-alpha (Homo sapiens), sequence (P11388 whole entry): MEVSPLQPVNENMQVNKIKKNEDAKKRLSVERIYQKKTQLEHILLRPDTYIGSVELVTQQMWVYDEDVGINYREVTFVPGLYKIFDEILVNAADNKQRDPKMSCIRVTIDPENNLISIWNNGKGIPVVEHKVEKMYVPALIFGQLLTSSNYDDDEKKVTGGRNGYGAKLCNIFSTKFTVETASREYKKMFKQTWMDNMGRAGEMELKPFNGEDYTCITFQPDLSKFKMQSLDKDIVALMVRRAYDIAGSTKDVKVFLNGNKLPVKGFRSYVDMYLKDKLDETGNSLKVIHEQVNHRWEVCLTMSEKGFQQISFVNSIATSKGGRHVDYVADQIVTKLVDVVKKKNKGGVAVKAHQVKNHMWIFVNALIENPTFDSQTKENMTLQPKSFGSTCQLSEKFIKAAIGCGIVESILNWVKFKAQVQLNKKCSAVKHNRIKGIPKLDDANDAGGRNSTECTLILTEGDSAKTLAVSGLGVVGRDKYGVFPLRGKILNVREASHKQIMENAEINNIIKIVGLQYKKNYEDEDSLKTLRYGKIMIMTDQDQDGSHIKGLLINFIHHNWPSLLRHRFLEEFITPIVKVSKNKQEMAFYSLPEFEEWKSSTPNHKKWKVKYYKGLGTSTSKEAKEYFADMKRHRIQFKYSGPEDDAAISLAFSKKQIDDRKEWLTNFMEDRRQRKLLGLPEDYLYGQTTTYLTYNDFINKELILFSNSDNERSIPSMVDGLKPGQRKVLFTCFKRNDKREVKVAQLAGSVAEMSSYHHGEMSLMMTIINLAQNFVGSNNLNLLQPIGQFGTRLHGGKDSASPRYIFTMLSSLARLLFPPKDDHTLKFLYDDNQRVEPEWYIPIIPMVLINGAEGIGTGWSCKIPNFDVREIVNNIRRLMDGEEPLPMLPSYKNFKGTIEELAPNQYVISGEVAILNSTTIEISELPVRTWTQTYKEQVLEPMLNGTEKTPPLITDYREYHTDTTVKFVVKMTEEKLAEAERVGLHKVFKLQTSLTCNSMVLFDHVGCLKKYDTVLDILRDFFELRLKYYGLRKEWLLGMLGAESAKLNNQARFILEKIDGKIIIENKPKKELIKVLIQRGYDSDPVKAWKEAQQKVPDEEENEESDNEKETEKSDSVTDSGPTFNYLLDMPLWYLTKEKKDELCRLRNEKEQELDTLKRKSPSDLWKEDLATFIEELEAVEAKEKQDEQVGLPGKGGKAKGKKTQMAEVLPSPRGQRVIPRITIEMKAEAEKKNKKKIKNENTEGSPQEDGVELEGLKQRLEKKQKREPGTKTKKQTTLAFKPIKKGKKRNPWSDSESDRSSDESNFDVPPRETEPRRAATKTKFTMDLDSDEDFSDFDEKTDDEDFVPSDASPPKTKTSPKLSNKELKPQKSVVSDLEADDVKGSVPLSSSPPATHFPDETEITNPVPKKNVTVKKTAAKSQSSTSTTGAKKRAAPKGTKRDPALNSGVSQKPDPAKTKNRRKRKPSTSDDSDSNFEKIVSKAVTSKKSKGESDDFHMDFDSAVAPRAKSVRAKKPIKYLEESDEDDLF
Series [11] deals with Mus musculus. The series is described as follows: Toxicity in human A549 cells xenografted BALB/C mouse assessed as mortality at 2 mg/kg, ip for 5 days. The format is organism-based. Particulars: in vivo, 120 h.
Series [12] can be described thus: Cytotoxicity against human SKHEP1 cells after 72 hrs by MTT assay. The format is functional, cell-based. Particulars: SK-HEP1, 72 h.
In another series the test system is MDA-MB-435. The series can be described thus: Cytotoxicity against human MDA-MB-435 cells after 72 hrs by MTT assay. The format is functional, cell-based. The following applies: MDA-MB-435, 72 h.
Series [13] has as its system A549. The series can be described thus: Cytotoxicity against human A549 cells after 72 hrs by MTT assay. The format is functional, cell-based. The following applies: A549, 72 h.
The test system of a further series is NCI-H446. The series is described as follows: Cytotoxicity against human NCI-H446 cells after 72 hrs by MTT assay. In kind it is functional, cell-based. The following applies: NCI-H446, 72 h.
In another series the target is Tubulin. The series is described as follows: Inhibition of brain tubulin (unknown origin) polymerization measured up to 15 to 30 mins. Details: species or system Homo sapiens.
The nature of series [14]: Cytotoxicity against human Bel7404 cells after 72 hrs by MTT assay. The format is functional, cell-based. Particulars: BEL-7404, 72 h.
Another series deals with PC-3. The series is described as follows: cells. The following applies: Homo sapiens, PC-3, 72 h.
Series [15] can be described thus: Cytotoxicity against human MV-3 cells after 72 hrs by MTT assay. The format is functional, cell-based. The following applies: MV-3, 72 h.
In series [16] the test system is A549. The series can be described thus: Induction of apoptosis in human A549 cells assessed as change in cell morphology at 5 uM after 36 hrs by light microscope analysis. In kind it is functional, cell-based.
Series [17] addresses T1, DNA topoisomerase 1 (Homo sapiens). The series can be described thus: Inhibition of Top1 (unknown origin)-mediated pBR322 DNA cleavage using ethidium bromide staining at 100 uM after 15 mins by electrophoresis analysis.
Series [18] shares this target. The series can be described thus: Inhibition of Top1 (unknown origin)-mediated pBR322 DNA cleavage using ethidium bromide staining at 50 uM after 15 mins by electrophoresis analysis.
Series [19] has as its system Mus musculus. The series is described as follows: Toxicity in human A549 cells xenografted BALB/C mouse assessed as change in body weight at 0.5 mg/kg, ip for 5 days. In kind it is organism-based. The following applies: in vivo, 120 h.

Activity calls are given as the source filed them. No cut-off for these calls is given here. Bounds are passed on as bounds.

Description for PC-3: Cytotoxicity against human PC3 cells after 72 hrs by MTT assay

In the case of `O=C1c2cc(Cl)ccc2OC2c3[nH]c4ccc(O)cc4c3CCN12` (stereo unspecified), in series [1], the inhibition result is “Active”. For the same molecule, the IC50 is < 3 nM with HCT-116 [2]; < 3 nM in the series on K562; 5560 nM in series [5]; 1800 nM in [12]; 60 nM in the series on MDA-MB-435; 5200 nM in the series on A549 [13]. Further, the 50% inhibitory concentration (IC50) with NCI-H446 was > 200000 nM; against Tubulin it was 5300 nM; in [14] it was < 3 nM; in the series with PC-3 it was 400 nM; in [15], 1100 nM. At Tubulin (Homo sapiens), this molecule displayed an inhibition of 48%. Moreover, the “growth inhibition (GI)” value in the series with HCT-116 [3] and in the series on A549 [7] was “Active” in each case. The Activity result was “Non-toxic” with Mus musculus [4], 6.7% in the series on A549 [6], 63.7% in the series on A549 [8] and “Non-toxic” in the series with Mus musculus [11]. The result in the series on A549 [9] and in the series on A549 [16] was Active. In addition, the inhibition result in [10] is “inactive”.
For the molecule `O=C1c2ccccc2SC2c3[nH]c4ccc(O)cc4c3CCN12` (stereo unspecified), the inhibition result in series [1] is “Active”. Besides, the IC50 in the series with HCT-116 [2] is 40 nM; in the series with MDA-MB-435, < 3 nM; with A549 [13], 50 nM. The “growth inhibition (GI)” value in the series on HCT-116 [3] and in the series on A549 [7] was “Active” each time. In addition, the Activity entry is reported as “Non-toxic” in the series on Mus musculus [4], 6% in the series with A549 [6], 68.2% in the series with A549 [8] and “Non-toxic” with Mus musculus [11]. In addition, the outcome in the series with A549 [9] and in the series with A549 [16] was Active. Further, the inhibition result in series [10] is “inactive”.
For `O=C1c2cc(Cl)ccc2SC2c3[nH]c4ccc(O)cc4c3CCN12` (stereo unspecified), the inhibition result in series [17], in series [1], in [10] and in series [18] was “Active” throughout. For the same molecule, the IC50 was < 3 nM in the series with HCT-116 [2]; < 3 nM in the series on K562; 6900 nM in series [5]; 2100 nM in series [12]; < 3 nM in the series on MDA-MB-435; 20 nM in the series on A549 [13]. The half-maximal inhibitory concentration (IC50) in the series with NCI-H446 is > 200000 nM; on Tubulin it was 4500 nM; in series [14], < 3 nM; with PC-3 it was 370 nM; in series [15], 1300 nM. The molecule also displayed an inhibition against Tubulin (Homo sapiens) of 63%. In addition, the “growth inhibition (GI)” value in the series with HCT-116 [3] was “Active”.
Turning to `CC[C@@]1(O)C(=O)OCc2c1cc1n(c2=O)Cc2cc3c(CN(C)C)c(O)ccc3nc2-1` [TOPOTECAN], the half-maximal inhibitory concentration (IC50) in the series with HCT-116 [2] stood at 700 nM; with MDA-MB-435, 400 nM; in the series on A549 [13] it was 7400 nM. For the same molecule, the Activity entry in the series with Mus musculus [19] is listed as “Toxic”.

The values above are taken from ChEMBL document CHEMBL3600310 (J Med Chem, 2015).
